Measured values taken from patent EP0402259A1, “Anthracyclines, process for their preparation and medicaments containing them” (LABORATOIRES HOECHST S.A., priority 1989, dated 1990).
Values after ≈ are worked out from the molar mass of the structure shown.

How the values were obtained:
cellules tumorales L1210 = assay: Proliferation test (MTT reduction), L1210; type: cell-based; details: L1210, 72 h incubation; for IC50: Mus musculus, L1210, 72 h, read-out: CI50 TEST AU MTT L1210
Experimental: (§1) Les témoins consistent en cellules tumorales exposées à un milieu de culture. Quatre puits sont préparés pour chaque concentration en anthracycline et pour le témoin. Après 65 heures. 50 µl de MTT (2,5 mg/ml dans du PBS) sont ajoutés.
(§2) Le MTT sera réduit en présence de cellules vivantes en un colorant formazan rouge insoluble. Après 7 à 24 heures d'incubation supplémentaire (dépendant des cellules utilisées), le surnageant est enlevé. Le colorant formazan est solubilisé par l'addition de 100 ul de DMSO dans chaque puits, suivie d'une agitation douce.
(§3) L'extinction est mesurée pour chaque puits, à 492 nm (photomètre Multiscan 340 CC Fa. Flow).
(§4) Les résultats sont exprimés comme le rapport de l'extinction après incubation avec les anthracyclines sur l'extinction obtenue avec les témoins.

LXF = assay: Xenograft (subrenal capsule assay), LXF lung tumour; type: in vivo; details: for Xénogreffes LXF: grades not defined
cellules tumorales A549 = assay: Proliferation test (MTT reduction), A549; type: cell-based; details: A 549, 72 h incubation; for IC50: Homo sapiens, A549, 72 h, read-out: CI50 TEST AU MTT A 549
Experimental: as §1, §2, §3, §4

A549 = assay: Xenograft (subrenal capsule assay), A549; type: in vivo
HT29 = assay: Xenograft (subrenal capsule assay), HT29 colon tumour; type: in vivo
L1210 = assay: In vivo L1210 leukemia, survival time (T/C); set-up: species or system souris BDF1
Experimental: Un liquide d'ascite est prélevé dans des conditions aseptiques chez des souris DBA2 (femelle, 18 -20 g) le septième jours après l'implantation.
L'ascite est lavée trois fois avec du PBS, comptée et finalement diluée dans du PBS, de manière à obtenir 10^6 cellules/0,2 ml.
10^6 cellules dans 0,2 ml de PBS sont injectées dans le peritoine de souris DBA2 pour la propagation de la lignée cellulaire.
10^6 cellules dans 0,2 ml de PBS sont injectés intrapéritonéalement à des souris BDF1 (femelle 18 -20 g), 6 animauxigroupe sont utilisés pour chaque concentration de substance et pour le contrôle.
• a) les animaux sont pesés le premier jour et le cinquième jour après l'administration du médicament.
A partir du temps de survie moyen des groupes traités (MSTT) et des groupes contrôle (MSTc), l'effet antitumoral (T/C) est évalué en fonction de la formule suivante : [formula]

cellules tumorales HT29 = assay: Proliferation test (MTT reduction), HT29; type: cell-based; details: HT 29, 72 h incubation; for IC50: Homo sapiens, HT-29, 72 h, read-out: CI50 TEST AU MTT HT 29
Experimental: as §1, §2, §3, §4

[1] = L1210 i.p. in BDF1 mice, schedule 3 i.v.

For `C[C@@H]1O[C@@H](O[C@H]2C[C@](O)(CO)Cc3c(O)c4c(c(O)c32)C(=O)c2ccccc2C4=O)C[C@H](O)[C@@H]1N` [Composé 13, chlorhydratede (S)-cis-1-O-(4-amino-2,4,6-trideoxy-α-L-lyxo-hexopyranosyl)-1,2.3.4,6.11-hexahydro-1,3,5,12-tétrahydroxy-3-hydroxyméthyl-6,11-naphtacène dione], the “CI50 TEST AU MTT L1210” value (cellules tumorales L1210) was 0,009 µg/ml, the “Xénogreffes LXF” value (LXF) was “+ +” and the “activité sur tumeur du poumon (LXF)” value (LXF; in words) was “actif”. The “CI50 TEST AU MTT A 549” value (cellules tumorales A549) was 0,009 µg/ml, the “activité sur la lignée cellulaire A549” value (A549; in words) was “à un moindre degré” and the “activité sur tumeur du colon (HT29)” value (HT29; in words) was “à un moindre degré”. The dose optimale (L1210; [1]) was 3,1 mg/kg/Inj, the T/C % (L1210; L1210 i.p. in BDF1 mice, schedule 3 i.v., at optimal dose, T/C above 125 % = significant antitumour effect) was 133% and the activité antitumorale (L1210; in words, at a dose about three times lower than that of doxorubicine) was “activité antitumorale non négligeable”. For the same compound, the “CI50 TEST AU MTT HT 29” value (cellules tumorales HT29) was 0,01 µg/ml.

With `C[C@@H]1O[C@@H](O[C@H]2C[C@](O)(CO)Cc3c(O)c4c(c(O)c32)C(=O)c2ccccc2C4=O)C[C@H](O)[C@@H]1N=[N+]=[N-]` [compound 6] the IC50 (cellules tumorales L1210) was 0.13 µg/mL (≈ 0.254 µM), the IC50 (cellules tumorales A549) was 0.24 µg/mL (≈ 0.469 µM) and the IC50 (cellules tumorales HT29) was 0.46 µg/mL (≈ 0.899 µM).

`C[C@@H]1O[C@@H](O[C@H]2C[C@](O)(CO)Cc3c(O)c4c(c(O)c32)C(=O)c2ccccc2C4=O)C[C@H](O)[C@@H]1NC(=O)C(F)(F)F` [compound 11] was tested, and the IC50 (cellules tumorales L1210) was 0.015 µg/mL (≈ 0.0258 µM), the IC50 (cellules tumorales A549) was 0.011 µg/mL (≈ 0.0189 µM) and the IC50 (cellules tumorales HT29) was 0.026 µg/mL (≈ 0.0447 µM).

With `C[C@@H]1O[C@@H](O[C@H]2C[C@](O)(CO)Cc3c(O)c4c(c(O)c32)C(=O)c2ccccc2C4=O)C[C@H](O)[C@@H]1N` [compound 12, (S)-cis-1-O-{4 amino-2,4,6-trideoxy-α-L-lyxo-hexopyranosyl)-1,2,3,4,6,11-hexahydro-1,3,5,12-tétrahydroxy-3-hydroxyméthyl-6,11-naphtacène dione] the “CI50 TEST AU MTT L1210” value (cellules tumorales L1210) was 0,021 µg/ml, the “CI50 TEST AU MTT A 549” value (cellules tumorales A549) was 0,24 µg/ml and the “CI50 TEST AU MTT HT 29” value (cellules tumorales HT29) was 0,03 µg/ml.

Compound `C[C@@H]1O[C@@H](O[C@H]2C[C@](O)(CO)Cc3c(O)c4c(c(O)c32)C(=O)c2ccccc2C4=O)C[C@H](O)[C@@H]1N1CCOCC1` [compound 14, (S)-cis-1-O-{4-morpholino-2,4,6-tridésoxy-α-L-lyxo-hexopyranosyl)-1,2,3,4,6,11-hexahydro-1,3,5,12-tétrahydroxy-3-hydroxyméthyl-6,11-naphtacène dione] has an IC50 (cellules tumorales L1210) of 0.15 µg/mL (≈ 0.27 µM), an IC50 (cellules tumorales A549) of 0.054 µg/mL (≈ 0.0972 µM) and an IC50 (cellules tumorales HT29) of 0.13 µg/mL (≈ 0.234 µM).

For `COc1cccc2c1C(=O)c1c(O)c3c(c(O)c1C2=O)C[C@@](O)(C(=O)CO)C[C@@H]3O[C@H]1C[C@H](N)[C@H](O)[C@H](C)O1` [doxorubicine, reference compound], the “Xénogreffes LXF” value (LXF) was “+ + +”, the “Xénogreffes A549” value (A549; grades not defined) was “+ +” and the “Xénogreffes HT29” value (HT29; grades not defined) was “+ +”. The dose optimale (L1210; [1]) was 8,1 mg/kg/Inj.
